SMILES strings stand for the structures.

The source of these data is US20120207704A1 (priority 2011, published 2012).

The test concerns DU-145 cells. It is filed as cell-based, human.

For `C=C1[C@@H](C)[C@H]2[C@H](Cc3ccccc3)NC(=O)[C@]23[C@H](OC(C)=O)/C=C/[C@@](C)(O)C(=O)[C@@H](C)C/C=C/[C@H]3[C@@H]1O` [Cytochalasin-D], the “Effect on cell migration” value is reported as “did not migrate”; the “Relative Wound Density at 24 Hours, Mean” value was 3.3 ± 0.2; the “Relative Wound Density at 24 Hours, Percent Relative to Media” value is on record as 4%.
